Reference: ChEMBL document CHEMBL5528018, “Whole cell hydride Meisenheimer complex biotransformation guided optimization of antimycobacterial benzothiazinones” (Eur J Med Chem, 2024)
In brackets after ≈: the same amount, converted by molar mass.

Assays:
[1] = tested on: Mycobacterium tuberculosis; test: Antitubercular activity against Mycobacterium tuberculosis H37Rv by resazurin dye based microtiter plate assay; assay type: functional
[2] = Cytotoxicity against human HeLa cells assessed as cytolytic effect incubated for 72 hrs by methylene blue staining based colorimetric analysis; assay type: toxicity, cell-based
[3] = Selectivity index, ratio of CC50 for cytotoxicity against human HeLa cells to MIC for antitubercular activity against Mycobacterium tuberculosis H37Rv; assay type: toxicity, cell-based; conditions: read-out: Selectivity Index
[4] = Metabolic stability in human liver microsomes assessed as half life at 20 uM measured upto 90 mins in presence of NADP regenerating system by high-resolution mass spectrometry; assay type: ADME, Microsome
[5] = Metabolic stability in human liver microsomes assessed as intrinsic clearance at 20 uM measured upto 90 mins in presence of NADP regenerating system by high-resolution mass spectrometry; assay type: ADME, Microsome; conditions: read-out: CLH
[6] = Metabolic stability in human liver assessed as intrinsic clearance at 20 uM measured upto 90 mins in presence of NADP regenerating system by high-resolution mass spectrometry; assay type: ADME, tissue-based; conditions: read-out: CLH
[7] = Metabolic stability in human liver microsomes assessed as hepatic extraction ratio at 20 uM measured upto 90 mins in presence of NADP regenerating system by high-resolution mass spectrometry; assay type: ADME, Microsome; conditions: read-out: ERH
[8] = Cmax in mouse RAW264.7 cells at 77 uM incubated for 8 hrs by UHPLC-HRMS analysis; assay type: ADME, cell-based
[9] = Tmax in mouse RAW264.7 cells at 77 uM incubated for 8 hrs by UHPLC-HRMS analysis; assay type: ADME, cell-based
[10] = Half life in mouse RAW264.7 cells at 77 uM incubated for 8 hrs by UHPLC-HRMS analysis; assay type: ADME, cell-based
[11] = Cmax in BALB/cAnNCrl mouse at 250 mg/kg, po measured upto 24 hrs by UHPLC-HRMS analysis; assay type: ADME, organism-based; conditions: in vivo
[12] = Tmax in BALB/cAnNCrl mouse at 250 mg/kg, po measured upto 24 hrs by UHPLC-HRMS analysis; assay type: ADME, organism-based; conditions: in vivo
[13] = AUC (0 to infinity) in BALB/cAnNCrl mouse at 250 mg/kg, po measured upto 24 hrs by UHPLC-HRMS analysis; assay type: ADME, organism-based; conditions: in vivo
[14] = Apparent volume of distribution during terminal phase in BALB/cAnNCrl mouse at 250 mg/kg, po measured upto 24 hrs by UHPLC-HRMS analysis; assay type: ADME, organism-based; conditions: in vivo, read-out: Vz/F
[15] = Half life in BALB/cAnNCrl mouse at 250 mg/kg, po measured upto 24 hrs by UHPLC-HRMS analysis; assay type: ADME, organism-based; conditions: in vivo
[16] = Apparent oral clearance in BALB/cAnNCrl mouse at 250 mg/kg measured upto 24 hrs by UHPLC-HRMS analysis; assay type: ADME, organism-based; conditions: in vivo
[17] = tested on: Mycobacterium tuberculosis; test: Antitubercular activity against Mycobacterium tuberculosis H37Rv infected in BALB/c mouse assessed as reduction of colony forming unit in lung administered once daily for 6 weeks by agar dilution method; assay type: functional, organism-based; conditions: dose 25-250 mg/kg/day, route po
[18] = tested on: Mycobacterium tuberculosis; test: Antitubercular activity against Mycobacterium tuberculosis H37Rv infected in BALB/c mouse assessed as reduction of colony forming unit in spleen administered once daily for 6 weeks by agar dilution method; assay type: functional, organism-based; conditions: dose 25-250 mg/kg/day, route po
[19] = Toxicity in BALB/c mouse infected with Mycobacterium tuberculosis H37Rv assessed as drug tolerance at 25 to 250 mg/kg/day, po qd administered for 6 weeks; assay type: organism-based; conditions: in vivo, 1008 h, dose 25-250 mg/kg/day
[20] = Drug metabolism in BALB/c cAnNCrl mouse assessed as HMC metabolite formation at 250 mg/kg, po measured upto 24 hrs by UHPLC-HRMS analysis; assay type: ADME, organism-based; conditions: in vivo
[21] = Stability in mouse RAW264.7 cells assessed as parent compound remaining at 77 uM after 8 hrs by UHPLC-HRMS analysis; assay type: ADME, cell-based; conditions: read-out: Stability
[22] = Drug metabolism in cattle assessed as hydride meisenheimer complex formation by UHPLC-HRMS analysis; assay type: ADME, Bos taurus
[23] = Drug metabolism in rat assessed as hydride meisenheimer complex formation by UHPLC-HRMS analysis; assay type: ADME
[24] = Drug metabolism in sheep assessed as hydride meisenheimer complex formation by UHPLC-HRMS analysis; assay type: ADME, Ovis aries
[25] = Drug metabolism in goat assessed as hydride meisenheimer complex formation by UHPLC-HRMS analysis; assay type: ADME, Capra hircus
[26] = Drug metabolism in CD1 mouse heart assessed as hydride meisenheimer complex formation by UHPLC-HRMS analysis; assay type: ADME, tissue-based
[27] = Drug metabolism in CD1 mouse brain assessed as hydride meisenheimer complex formation by UHPLC-HRMS analysis; assay type: ADME, tissue-based
[28] = Drug metabolism in CD1 mouse liver assessed as hydride meisenheimer complex formation by UHPLC-HRMS analysis; assay type: ADME, tissue-based
[29] = Drug metabolism in CD1 mouse lung assessed as hydride meisenheimer complex formation by UHPLC-HRMS analysis; assay type: ADME, tissue-based
[30] = Drug metabolism in CD1 mouse spleen assessed as hydride meisenheimer complex formation by UHPLC-HRMS analysis; assay type: ADME, tissue-based
[31] = Drug metabolism in CD1 mouse muscle assessed as hydride meisenheimer complex formation by UHPLC-HRMS analysis; assay type: ADME, tissue-based, Muscle tissue
[32] = Drug metabolism in CD1 mouse kidney assessed as hydride meisenheimer complex formation by UHPLC-HRMS analysis; assay type: ADME, tissue-based
[33] = Drug metabolism in CD1 mouse blood assessed as hydride meisenheimer complex formation by UHPLC-HRMS analysis; assay type: ADME, tissue-based

Row | Compound | MIC [1] | CC50 at 72 h [2] | selectivity ratio [3] | half-life at 20 µM [4] | microsomal CLint at 20 µM [5] | CLint scaled at 20 µM [6] | hepatic extraction ratio at 1.5 h, 20 µM [7] | further results
1 | O=c1nc(N2CCC(Oc3ccc(OC(F)(F)F)cc3)CC2)sc2c([N+](=O)[O-])cc(C(F)(F)F)cc12 | 0.0056 µM (≈ 0.003 µg/mL) | > 93 µM | 16700 | – | – | – | – | –
2 | Cc1c(C(F)(F)F)c(C)c2c(=O)nc(N3CCC4(CC3)OC[C@H](C)O4)sc2c1[N+](=O)[O-] | 4.35 µM (≈ 2 µg/mL) | 93 µM | 21 | – | – | – | – | –
3 | Cc1c(C(F)(F)F)cc([N+](=O)[O-])c2sc(N3CCN(CC4CCCCC4)CC3)nc(=O)c12 | 0.056 µM (≈ 0.0263 µg/mL) | 53 µM | 50000 | 41.5 min | 33.7 µL/min/mg | 39 mL/min/kg | 0.661 | –
4 | Cc1c(C(F)(F)F)cc([N+](=O)[O-])c2sc(N3CCC(Oc4ccc(OC(F)(F)F)cc4)CC3)nc(=O)c12 | 0.91 µM (≈ 0.5 µg/mL) | > 91 µM | 100 | 34.3 min | 40.8 µL/min/mg | 47.1 mL/min/kg | 0.702 | –
5 | Cc1c(C(F)(F)F)cc([N+](=O)[O-])c2sc(N3CCN(S(=O)(=O)c4ccc(OC(F)(F)F)cc4)CC3)nc(=O)c12 | > 6.68 µM | > 84 µM | 13 | – | – | – | – | –
6 | Cc1c(C(F)(F)F)cc2c(=O)nc(N3CCC4(CC3)OC[C@H](C)O4)sc2c1[N+](=O)[O-] | 0.842 µM (≈ 0.375 µg/mL) | 87 µM | 104 | 165 min | 8.5 µL/min/mg | 9.8 mL/min/kg | 0.329 | –
7 | O=c1nc(N2CCN(S(=O)(=O)c3ccc(OC(F)(F)F)cc3)CC2)sc2c([N+](=O)[O-])cc(C(F)(F)F)cc12 | 0.108 µM (≈ 0.0631 µg/mL) | 43 µM | 397 | – | – | – | – | –
8 | C#Cc1c(C(F)(F)F)cc([N+](=O)[O-])c2sc(N3CCC4(CC3)OC[C@H](C)O4)nc(=O)c12 | > 8.78 µM | 9 µM | 1 | – | – | – | – | –
9 | O=c1nc(N2CCN(CC3CCCCC3)CC2)sc2c([N+](=O)[O-])cc(C(F)(F)F)cc12 [MACOZINONE] | 0.0011 µM (≈ 0.000502 µg/mL) | > 110 µM | 100000 | – | – | – | – | –
10 | C[C@H]1COC2(CCN(c3nc(=O)c4cc(C(F)(F)F)cc(N)c4s3)CC2)O1 | – | – | – | – | – | – | – | Cmax at 77 µM [8]: 2000 ng/mL; Tmax at 77 µM [9]: 8 h; half-life at 77 µM [10]: 780 min
11 | Cc1c(C(F)(F)F)cc2c(=O)nc(N3CCN(S(=O)(=O)c4ccc(OC(F)(F)F)cc4)CC3)sc2c1[N+](=O)[O-] | > 6.68 µM | > 84 µM | 13 | – | – | – | – | –
12 | Cc1c(C(F)(F)F)cc([N+](=O)[O-])c2sc(N3CCC4(CC3)OC[C@H](C)O4)nc(=O)c12 | 0.053 µM (≈ 0.0236 µg/mL) | > 110 µM | 8330 | 102 min | 13.7 µL/min/mg | 15.9 mL/min/kg | 0.443 | Cmax at 77 µM [8]: 504 ng/mL; Tmax at 77 µM [9]: 0.17 h; half-life at 77 µM [10]: 1210 min; Cmax [11]: 2410 ng/mL; Tmax [12]: 30 min; AUC [13]: 15600 ng·h/mL; Vd/F [14]: 108 L/kg; half-life [15]: 276 min; CL/F [16]: 267 mL/min/kg; Activity [17]: Dose-Dependent Effect; Activity [18]: Dose-Dependent Effect; Activity [19]: Non-Toxic; Drug metabolism [20]: Metabolite_Notdetected; remaining at 8 h, 77 µM [21]: 76.6%
13 | Cc1c(C(F)(F)F)cc2c(=O)nc(N3CCN(CC4CCCCC4)CC3)sc2c1[N+](=O)[O-] | 0.797 µM (≈ 0.375 µg/mL) | 64 µM | 80 | – | – | – | – | –
14 | Cc1c(C(F)(F)F)cc2c(=O)nc(N3CCC(Oc4ccc(OC(F)(F)F)cc4)CC3)sc2c1[N+](=O)[O-] | 3.64 µM (≈ 2 µg/mL) | > 91 µM | 25 | 68 min | 20.6 µL/min/mg | 23.8 mL/min/kg | 0.543 | –
15 | C[C@H]1COC2(CCN(c3nc(=O)c4cc(C(F)(F)F)cc([N+](=O)[O-])c4s3)CC2)O1 [BTZ-043] | 0.00348 µM (≈ 0.0015 µg/mL) | > 120 µM | 33300 | – | – | – | – | Cmax at 77 µM [8]: 3950 ng/mL; Tmax at 77 µM [9]: 0 h; half-life at 77 µM [10]: 138 min; Drug metabolism [22]: Metabolite_Detected; Drug metabolism [23]: Metabolite_Detected; Drug metabolism [24]: Metabolite_Detected; Drug metabolism [25]: Metabolite_Detected; Drug metabolism [26]: Metabolite_Detected; Drug metabolism [27]: Metabolite_Detected; Drug metabolism [28]: Metabolite_Detected; Drug metabolism [29]: Metabolite_Detected; Drug metabolism [30]: Metabolite_Detected; Drug metabolism [31]: Metabolite_Detected; Drug metabolism [32]: Metabolite_Detected; Drug metabolism [33]: Metabolite_Detected
